According to patent US20030157516A1, “G protein coupled receptor” (priority 2000, published 2003):
Where “and” joins values, the source holds several entries; their conditions need not be identical. Equal values may be shown once. Read-outs that look alike come from different tables or passages of the source.

Columns and labels:
[1] = test system: wild type CHO cells; experiment: [3H]adenine competition binding on wild type CHO membranes; conditions: 15 nM [3H]adenine
Experimental: The membranes were prepared as total particulate fractions. […] The culturing medium was removed and the cells were washed twice with ice cold phosphate buffered saline (PBS without Ca^2+ and Mg^2+), scraped from the plates in 50 mM Tris-HCl buffer, pH 7.4, and collected by centrifugation (10 minutes at 16,000 RPM at 4° C.). The cell pellet was re-suspended in hypotonic 5 mM Tris-HCl buffer, pH 7.4, and homogenized with an Ultra Turrax homogenizer (Janker Kunkel, Germany). The homogenate was centrifuged at 18,000 RPM for 20 minutes at 4° C. The final pellet was re-suspended in 50 mM Tris-HCl buffer, pH 7.4 and stored in aliquots at −70° C. A protein determination was performed using the Bradford protein assay (Biorad, Germany) using bovine serum albumin (BSA) as standard.
(§1) Membranes were thawed on ice and diluted in 50 mM HEPES buffer, pH 7.4 supplemented with 10 mM MgCl2 and 1 mM EGTA. […] Both assays were carried out in a final volume of 500 μl, using 18 μg of membrane protein for the transfected CHO cells and 30 μg of membrane protein for the wild type CHO cells for the saturation binding. For competition binding experiments, 15 and 50 μg of membrane protein was used for the transfected and wild type cells, respectively. The reaction was terminated by rapid filtration through Whatman GF/B filters using a Brandel multi-channel cell harvester (96 wells). The filters were washed three times with 3 ml ice cold 50 mM HEPES buffer, pH 7.4, transferred to liquid scintillation vials and 3 ml of scintillation fluid (Ultima Gold MV, Packard, Netherlands) was added. Samples were counted in a β-scintillation counter after at least 6 hours to permit the glass fiber filters to become uniformly translucent.

[2] = molecular target: T1, adenine binding rat receptor (Rattus norvegicus, UniProt Q7TN49); experiment: [3H]adenine competition binding on CHO membranes transiently transfected; conditions: transfected cells, 15 nM [3H]adenine
T1 construct: expressed in transfected cells; host or cells: CHO cells, transient, lipofectamine PLUS
T1 sequence (Q7TN49 1-304): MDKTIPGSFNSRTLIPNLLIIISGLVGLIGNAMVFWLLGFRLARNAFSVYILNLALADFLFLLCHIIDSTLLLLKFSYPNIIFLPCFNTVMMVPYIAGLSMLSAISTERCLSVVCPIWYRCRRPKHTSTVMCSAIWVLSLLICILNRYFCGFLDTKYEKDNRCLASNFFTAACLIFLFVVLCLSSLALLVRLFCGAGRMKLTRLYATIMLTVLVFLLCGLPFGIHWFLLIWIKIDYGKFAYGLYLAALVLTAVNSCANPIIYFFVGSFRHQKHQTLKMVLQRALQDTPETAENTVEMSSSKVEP
Experimental: The membranes were prepared as total particulate fractions. The cell lines were cultured to […] on 145 mm petri dishes and treated with 5 mM sodium butyrate, 24 hours before collection. The culturing medium was removed and the cells were washed twice with ice cold phosphate buffered saline (PBS without Ca^2+ and Mg^2+), scraped from the plates in 50 mM Tris-HCl buffer, pH 7.4, and collected by centrifugation (10 minutes at 16,000 RPM at 4° C.). The cell pellet was re-suspended in hypotonic 5 mM Tris-HCl buffer, pH 7.4, and homogenized with an Ultra Turrax homogenizer (Janker Kunkel, Germany). The homogenate was centrifuged at 18,000 RPM for 20 minutes at 4° C. The final pellet was re-suspended in 50 mM Tris-HCl buffer, pH 7.4 and stored in aliquots at −70° C. A protein determination was performed using the Bradford protein assay (Biorad, Germany) using bovine serum albumin (BSA) as standard.
as §1, with “A) Methods—[3H]Adenine binding experiments were performed to characterize wild type cell lines before transfection as well as transiently and permanently transfected cell lines. Membranes” for “Membranes”

[3] = molecular target: T1, adenine binding rat receptor; experiment: [35S]GTPγS binding on CHO membranes transiently transfected; format: biochemical; conditions: transiently transfected cells; for % stim.: increase above basal; for EC50: read-out: pEC50 (converted)
Experimental: a) Methods—Determination of [^35S ]GTPγS binding to the G-proteins was carried out according to a modified procedure of Lazareno (Methods Mol. Biol., 83:107-116, 1997). These experiments were performed for a first functional evaluation of the receptor on the level of a membrane preparation.
The assay mixture contained 10 and 35 μg of membrane protein for the transfected and wild type CHO cells, respectively.
For testing agonistic activity, 175 μl of diluted membranes was pre-incubated in the buffer described above together with 25 μl of buffer and 25 μl of varying concentrations of the compound in a total volume of 225 μl. After a 20 minute pre-incubation period at 30° C., 25 μl of [^35S]GTPγS was added to a final concentration of 0.25 nM and the assay mixtures were further incubated for 20 minutes at 30° C. Bound and free [^35S]GTPγS were separated by rapid filtration over an UniFilter™-96, GF/B™ under reduced pressure using Filtermate 196 filtration (Packard Company (Netherlands). The amount of bound radioactivity on the filter unit was determined after drying of the filters and scintillant addition (Microscint-O; Packard Company) by liquid scintillation counting.
Basal [^35S]GTPγS binding was measured in absence of compounds. Stimulation by agonist was calculated as the percentage increase above basal levels. The sigmoid agonist concentration-response curves were analyzed by non-linear regression using the GraphPad Prism program. The different concentration points were run in duplicates and the reported data were retrieved from independent experiments.

[4] = molecular target: T2, rat adenine binding GPCR (Rattus norvegicus, UniProt Q7TN49); experiment: FLIPR Ca2+ transient assay, agonism, HEK293/Gq chimera cells transiently transfected with rat adenine binding GPCR/pcDNA3; format: cell-based; design: The full length reading frame was inserted into the mammalian expression vector pcDNA3; expressed in transfected cells; host or cells: HEK293 cells stably transfected with pLEC/Gqi or pLEC/Gqo; conditions: for agonistic effects on Ca2+ transients: concentrations ranging from 30 μM to 30 pM; for calcium transients elicited: HEK293/Gaqo cells, 3.3 μM
T2 sequence (Q7TN49 1-304): T1 sequence (Q7TN49 1-304)
Excerpt: This assay is based around an instrument called a FLuorescence Imaging Plate Reader ((FLIPR®), Molecular Devices Corporation). In its most common configuration, it excites and measures fluorescence emitted by fluorescein-based dyes. It uses an argon-ion laser to produce high power excitation at 488 nm of a fluorophore, a system of optics to rapidly scan the over the bottom of a 96-/384-well plate and a sensitive, cooled CCD camera to capture the emitted fluorescence. It also contains a 96-/384-well pipetting head allowing the instrument to deliver solutions of test agents into the wells of a 96-/384-well plate. The FLIPR assay is designed to measure fluorescence signals from populations of cells before, during and after addition of compounds, in real time, from all 96-/384-wells simultaneously. […] As described below, calcium transients in cells transfected with adenine binding GPCR were measured using the FLIPR assay in order to measure activation of the receptors by various substrates in order to determine the natural ligand of the receptor.
The full length reading frame was inserted into the mammalian expression vector pcDNA3 (Invitrogen, Carlsbad, Calif., U.S.A.) and the resulting expression construct was transiently transfected with the FuGENE 6 reagent (Roche Molecular Biochemicals, Mannheim, Germany) into HEK293 cells stably transfected (E. Bender, unpublished) with pLEC/Gqi or pLEC/Gqo (Molecular Devices, Sunnyvale, Calif., U.S.A.). The cells were loaded with Fluo-4 (Molecular Probes, Eugene, Oreg., U.S.A.) according to the recommendations of the supplier. […]
Using the FLIPR assay as above, calcium transients were measured in both sets of cells with the transients attributable to the novel GPCR measured as the difference between the two transients. Results are illustrated in FIG. 4. […]

[5] = molecular target: T3, adenine binding GPCR (Rattus norvegicus, UniProt Q7TN49); experiment: FLIPR Ca2+ transient assay, antagonism of 30 nM adenine challenge; format: cell-based; conditions: 15 minutes incubation with compound (30 μM to 30 pM), then challenge with 30 nM adenine
T3 construct: The full length reading frame was inserted into the mammalian expression vector pcDNA3; expressed in transfected cells; host or cells: HEK293 cells stably transfected with pLEC/Gqi or pLEC/Gqo
T3 sequence (Q7TN49 1-304): T1 sequence (Q7TN49 1-304)
Excerpt: The full length reading frame was inserted into the mammalian expression vector pcDNA3 (Invitrogen, Carlsbad, Calif., U.S.A.) and the resulting expression construct was transiently transfected with the FuGENE 6 reagent (Roche Molecular Biochemicals, Mannheim, Germany) into HEK293 cells stably transfected (E. Bender, unpublished) with pLEC/Gqi or pLEC/Gqo (Molecular Devices, Sunnyvale, Calif., U.S.A.). The cells were loaded with Fluo-4 (Molecular Probes, Eugene, Oreg., U.S.A.) according to the recommendations of the supplier.
After a 15 minutes incubation at room temperature, the same cells were challenged with 30 nM adenine, to detect antagonistic properties of molecules added in the first round of superfusion.

Compound | pIC50 ([1]; mean of n experiments) | pIC50 ([1]; single experiments) | Ki ([2]; mean of n experiments) | Ki ([2]; single experiments) | agonistic effects on Ca2+ transients [4] | antagonistic effect [5] | also measured
c1ccc(CNc2ncnc3nc[nH]c23)cc1 [6-Benzylaminopurine] | <4 | <4 | 58.3 µM | 61.4 µM and 54.1 µM |  |  | IC50 ([2]; mean of n experiments): 93.3 µM; IC50 ([2]; single experiments): 87.1 µM; stimulation normalized to maximum adenine response ([3]; adenine stimulation of same experiment = 100%): (11% ref); % stim. ([3]; mean of n experiments): 12%; % stim. ([3]; single experiments): 12%; EC50 ([3]; mean of n experiments): > 100 µM; EC50 ([3]; single experiments): > 100 µM
Nc1ncnc2c1ncn2[C@@H]1O[C@H](COP(=O)(O)OP(=O)(O)O)[C@@H](O)[C@H]1O [ADP] | <4 | <4 |  |  | No further agonistic effects | did not elicit antagonistic effects | pIC50 ([2]; mean of n experiments): <4; pIC50 ([2]; single experiments): <4
Nc1ncnc2c1ncn2[C@@H]1O[C@H](COP(=O)(O)OP(=O)(O)OP(=O)(O)O)[C@@H](O)[C@H]1O [ATP] | <4 | <4 | 52.8 µM | 58.5 µM (2×) and 40.7 µM | No further agonistic effects | did not elicit antagonistic effects | pIC50 ([2]; mean of n experiments): 4.07; pIC50 ([2]; single experiments): 4.02 and 4.18
COc1cccc2c1C(=O)c1c(O)c3c(c(O)c1C2=O)C[C@@](O)(C(=O)CO)C[C@@H]3O[C@H]1C[C@H](N)[C@H](O)[C@H](C)O1 [Adrianamycin] | <4 | <4 | 27.9 µM | 27.8 µM |  |  | pIC50 ([2]; mean of n experiments): 4.35; pIC50 ([2]; single experiments): 4.35
COc1cccc2c1C(=O)c1c(O)c3c(c(O)c1C2=O)C[C@@](O)(C(C)=O)C[C@@H]3O[C@H]1C[C@H](N)[C@H](O)[C@H](C)O1 [Daunomycin] | <4 | <4 | 31.3 µM | 31 µM |  |  | IC50 ([2]; mean of n experiments): 50.1 µM; IC50 ([2]; single experiments): 50.1 µM
O=c1ccn([C@@H]2O[C@H](COP(=O)(O)OP(=O)(O)O)[C@@H](O)[C@H]2O)c(=O)[nH]1 [UDP] |  |  |  |  | No further agonistic effects | did not elicit antagonistic effects | calcium transients elicited [4]: could not be elicited
O=c1ccn([C@@H]2O[C@H](COP(=O)(O)OP(=O)(O)OP(=O)(O)O)[C@@H](O)[C@H]2O)c(=O)[nH]1 [UTP] |  |  |  |  | No further agonistic effects | did not elicit antagonistic effects | 
Cc1ccc(C(=O)Nc2ccc(S(=O)(=O)O)c3cc(S(=O)(=O)O)cc(S(=O)(=O)O)c23)cc1NC(=O)c1cccc(NC(=O)Nc2cccc(C(=O)Nc3cc(C(=O)Nc4ccc(S(=O)(=O)O)c5cc(S(=O)(=O)O)cc(S(=O)(=O)O)c45)ccc3C)c2)c1 [suramin] |  |  |  |  | No further agonistic effects | did not elicit antagonistic effects | 
Cn1c(=O)c2[nH]cnc2n(C)c1=O [theophylline] |  |  |  |  | No further agonistic effects | did not elicit antagonistic effects | 
O=c1[nH]c(=O)c2[nH]cnc2[nH]1 [xanthine] |  |  |  |  | No further agonistic effects | did not elicit antagonistic effects | calcium transients elicited [4]: could not be elicited
reactive blue |  |  |  |  | No further agonistic effects | did not elicit antagonistic effects | 
